Data from patent US20250205249A1, “COMPOSITION FOR USE IN ENHANCING, BOOSTING, RESTORING AND/OR PREVENTING THE DECLINE OF COGNITIVE FUNCTIONS, ADJUVANT COMPOSITION, METHOD FOR USING THE COMPOSITION OR ADJUVANT COMPOSITION, AND KIT HAVING THE COMPOSITION OR ADJUVANT COMPOSITION” (Instytut Badawczy Innowacyjno Rozwojowy "Biotomed" Sp. Z O.O, priority 2023, published 2025).
Where two headings read alike, the source gives them in different places. Marks after values point to notes of the source that are not given here.

Experiments:
[1] = tested on: differentiated SH-SY5Y cells; test: Neuroprotection against H2O2, preincubation variant; assay type: cell-based, human
Excerpt: (§1) Human neuroblastoma cells of the SH-SY5Y lineage were chosen to perform the experiment.
(§2) Based on the literature review and research work, hydrogen peroxide H2O2 was chosen as the neurotoxin.

[2] = tested on: differentiated neuroblastoma cells (SH-SY5Y); test: Neuroprotection against H2O2, postincubation variant; assay type: cell-based, human; conditions: 1 h and 3 h H2O2 at EC50, then 24 h post-incubation
Experimental: as §1
Two time variants of incubation with hydrogen peroxide in differentiated neuroblastoma culture, i.e. 1 h and 3 h, were used in post-incubation.

[3] = tested on: differentiated SH-SY5Y neuroblastoma cells; test: Early apoptosis of H2O2-treated cells, coincubation variant; assay type: cell-based, human; conditions: 24 h coincubation with H2O2
Experimental: A coincubation variant was used, i.e. simultaneous administration of betulin or a reference drug and H2O2. H2O2 concentrations were EC50 or EC80 (resulting in a 50% and 80% reduction in cell viability in viability assays). Betulin concentrations were 1 μM and 5 μM, while NAC concentrations were 0.1 mM and 1 mM. The coincubation time of the test substances with H2O2 was 24 h.

[4] = tested on: differentiated SH-SY5Y neuroblastoma cells; test: Neuroprotection against H2O2, coincubation variant; assay type: cell-based, human; conditions: for Increase in viability relative to cells treated with hydrogen peroxide: 24 h co-incubation, H2O2 at EC50; for Improvement in cell viability relative to the positive control: coincubation with H2O2
Excerpt: as §1, §2

[5] = tested on: rats with Alzheimer-like neurodegeneration; conditions: Morris water maze, 5th day of testing; AlCl3 rats
Experimental: (§3) The study was conducted on Wistar rats weighing 220-250 g. All animals were subjected to two weeks of observation prior to the experiment to exclude infection. Rats were housed in standard cages, 5 individuals in each. The animals stayed in a room with a temperature of 22±2° C., air humidity 60-70% and in natural lighting (12/12 in a day/night cycle).
(§4) The Alzheimer's disease model was induced by administering aluminum chloride AICl3 (200 mg/kg body weight, i.g.) to the animals for 120 days. […] Animals were assigned to groups: control group receiving saline (sham operation), group with AlCl3 without treatment and group with AlCl3 receiving betulin (100 mg/kg/day, i.g., within the last 50% of the days of the experiment) and betulin in the complex with cyclodextrin (100 mg/kg/day, i.g., in the last 50% of the days of the experiment). Betulin or betulin in a complex with cyclodextrin was administered orally with an intragastric probe in a 2% starch emulsion, reflecting the composition of the finished preparation given in the examples of use.

Aβ1-42 protein = conditions: 100 mg/kg/day, i.g.
Experimental: as §3
(§5) The Alzheimer's disease model was induced by administering aluminum chloride AICl3 (200 mg/kg body weight, i.g.) to the animals for 120 days. […] Animals were assigned to groups: control group receiving saline (sham operation), group with AlCl3 without treatment and group with AlCl3 receiving betulin (100 mg/kg/day, i.g., within the last 50% of the days of the experiment) and betulin in the complex with cyclodextrin (100 mg/kg/day, i.g., in the last 50% of the days of the experiment).
(§6) On the last day of the experiment, the animals were anaesthetized. Brains were quickly collected and then divided into different areas. The entire procedure was carried out in a cold room (+4° C.) on ice, and the samples were frozen in liquid nitrogen and stored in an ultra-low temperature refrigerator for further analysis.
(§7) In order to measure rat brain damage caused by aluminum chloride, biochemical determinations were carried out on the collected brain tissue fragments.

[6] = tested on: oxidative stress parameters (GSH, GSSG, G6PD, glutathione reductase, glutathione-S-transferase, GPO); test: Glutathione content and antioxidant enzymes activities in brain hemispheres during Al-intoxication; assay type: in vivo, Wistar rats
Excerpt: Influence of Betulin on Oxidative Stress Parameters in Rats with Alzheimer-Like Neurodegeneration

APLP2 = conditions: 100 mg/kg/day, i.g.
Experimental: as §3, §5, §6, §7

[7] = tested on: rats with Alzheimer-like neurodegeneration; test: Beam walking test (motor coordination); assay type: in vivo, Wistar rats; conditions: 5th day of testing, AlCl3 rats
Experimental: as §3, §4

[8] = tested on: differentiated SH-SY5Y neuroblastoma cells; conditions: XTT assay, tested 1-30 μM
Excerpt: as §1

TNFα = conditions: 100 mg/kg/day, i.g.
Experimental: as §3, §5, §6, §7

renal tubular epithelium = conditions: cited from earlier work
[9] = cited from earlier work; for Total daily oral dose may reach: as dietary supplement (HP-β-cyclodextrin: as oral pharmaceutical); for NOAEL (No Observed Adverse Effect Level): oral intake
[10] = rat hippocampal homogenate, AlCl3 model
[11] = brain hemispheres, Al-intoxication

With `CC(=O)N[C@@H](CS)C(=O)O` [NAC, N-acetyl-L-cysteine, reference compound] the “Protective effect against H2O2 (in words)” value ([1]; 24 h preincubation, NAC 2.5 mM to 0.01 mM, H2O2 at EC50) was “statistically significant (####p<0.001) protective effect on cells (no decrease in viability)”, the “Protective effect after H2O2 treatment (in words)” value [2] was “induced a protective effect in a NAC concentration-dependent manner” and the “Induction of early apoptosis (percentage of apoptotic cells)” value ([3]; NAC 0.1 mM) was 12.2%. The “Induction of early apoptosis (percentage of apoptotic cells)” value ([3]; NAC 1 mM) was 12.0%, the “Increase in viability relative to cells treated with hydrogen peroxide” value ([4]; NAC 0.01 mM) was 12% and the “Increase in viability relative to cells treated with hydrogen peroxide” value ([4]; NAC 0.1 mM) was 40%. For the same molecule, the “Increase in viability relative to cells treated with hydrogen peroxide” value ([4]; NAC 1 mM) was 54%.
In the case of `C=C(C)[C@@H]1CC[C@]2(CO)CC[C@]3(C)[C@H](CC[C@@H]4[C@@]5(C)CC[C@H](O)C(C)(C)[C@@H]5CC[C@]43C)[C@@H]12` [betulin], the “Protective effect against H2O2 (in words)” value ([1]; betulin 1, 2, 5 and 10 μM, toxin at EC50) is reported as “statistically significant protective effect”, the “Protective effect against H2O2 (in words)” value ([1]; betulin 15 and 20 μM) is reported as “no protective effect” and the “Time spent in a target quadrant” value [5] is reported as 26 ± 8^ab seconds. For the same molecule, the “Time to reach the platform” value [5] was 38 ± 7^b seconds, the “Protective effect after H2O2 treatment (in words)” value [2] was “no increase in viability relative to the positive control” and the “Percentage of apoptotic cells” value ([3]; betulin 1 μM) was 2.7%. For the same molecule, the “Percentage of apoptotic cells” value ([3]; betulin 5 μM) was 2.5%, the “Effect on β-amyloid concentration in hippocampal homogenates (in words)” value (Aβ1-42 protein) was “reduced the concentration of β-amyloid” and the “Protein Aβ1-42” value (Aβ1-42 protein; [10]) was 83.25 ± 6.40^ab pg/100 mg. The “Effect on GSH, GR and GSTs activity (in words)” value ([6]; animals with induced AD) was “significant increase in the activity of all enzymes”, the “Effect on GSSG, G6PD and GPO activity (in words)” value ([6]; animals with induced AD) was “significant decrease in the activity of these enzymes” and the G6PD [6, 11] was 28.61 ± 1.62^b nmol NADPH/min/mg protein. For the same molecule, the GPO [6, 11] was 33.63 ± 2.09^b umol GSH/min/mg protein, the GSH [6, 11] was 26.09 ± 2.19^b nmol/mg protein and the GSSG [6, 11] was 0.112 ± 0.002^b nmol/mg protein. The Glutathione reductase [6, 11] was 11.59 ± 1.39 nmol NADPH/min/mg protein, the Glutathione-S-transferase [6, 11] was 129.90 ± 10.45^b nmol CDNB/min/mg protein and the “Effect on APLP2 concentration in hippocampal homogenates (in words)” value (APLP2) was “reduced the concentration of APLP2”. The APLP2 (APLP2; rat brain hippocampus homogenate, AlCl3 model) was 588.1 ± 36.4^ab pg/100 mg, the “Improvement in cell viability relative to the positive control” value ([4]; betulin 1 μM) was 27% and the “Improvement in cell viability relative to the positive control” value ([4]; betulin 5 μM) was 18%. The “Percent of successful trials” value [7] was 100^b %, the “Time to reach the shelter” value [7] was 18.6 ± 3.6^ab seconds and the “Concentration above which a cytotoxic effect is induced (viability below the 70% threshold)” value [8] was greater than 20 µM. The “Effect on TNFα concentration in hippocampal homogenates (in words)” value (TNFα) was “reduced the concentration of TNFα” and the TNF-α (TNFα; [10]) was 5.88 ± 0.39 ^b pg/mg.
In the case of `OC[C@H]1O[C@@H]2O[C@H]3[C@H](O)[C@@H](O)[C@@H](O[C@H]4[C@H](O)[C@@H](O)[C@@H](O[C@H]5[C@H](O)[C@@H](O)[C@@H](O[C@H]6[C@H](O)[C@@H](O)[C@@H](O[C@H]7[C@H](O)[C@@H](O)[C@@H](O[C@H]1[C@H](O)[C@H]2O)O[C@@H]7CO)O[C@@H]6CO)O[C@@H]5CO)O[C@@H]4CO)O[C@@H]3CO` [α-cyclodextrin], the “Renal toxicity after parenteral administration (in words)” value (renal tubular epithelium; rat, in vivo) is listed as “renal toxicity at relatively low doses” and the “Total daily oral dose may reach” value [9] is listed as 6000 mg/day.
In the case of `OC[C@H]1O[C@@H]2O[C@H]3[C@H](O)[C@@H](O)[C@@H](O[C@H]4[C@H](O)[C@@H](O)[C@@H](O[C@H]5[C@H](O)[C@@H](O)[C@@H](O[C@H]6[C@H](O)[C@@H](O)[C@@H](O[C@H]7[C@H](O)[C@@H](O)[C@@H](O[C@H]8[C@H](O)[C@@H](O)[C@@H](O[C@H]1[C@H](O)[C@H]2O)O[C@@H]8CO)O[C@@H]7CO)O[C@@H]6CO)O[C@@H]5CO)O[C@@H]4CO)O[C@@H]3CO` [β-cyclodextrin], the “Total daily oral dose may reach” value [9] is given as 500 mg/day and the “NOAEL (No Observed Adverse Effect Level)” value [9] is given as 10 mg/kg/day.
For `OC[C@H]1O[C@@H]2O[C@H]3[C@H](O)[C@@H](O)[C@@H](O[C@H]4[C@H](O)[C@@H](O)[C@@H](O[C@H]5[C@H](O)[C@@H](O)[C@@H](O[C@H]6[C@H](O)[C@@H](O)[C@@H](O[C@H]7[C@H](O)[C@@H](O)[C@@H](O[C@H]8[C@H](O)[C@@H](O)[C@@H](O[C@H]9[C@H](O)[C@@H](O)[C@@H](O[C@H]1[C@H](O)[C@H]2O)O[C@@H]9CO)O[C@@H]8CO)O[C@@H]7CO)O[C@@H]6CO)O[C@@H]5CO)O[C@@H]4CO)O[C@@H]3CO` [γ-cyclodextrin], the “Dose showing only reversible vacuolation in the renal tubular epithelium” value (renal tubular epithelium; rats, high doses) is listed as greater than 600 mg/kg, the “Total daily oral dose may reach” value [9] is listed as 10,000 mg/day and the “NOAEL (No Observed Adverse Effect Level)” value [9] is listed as 100 mg/kg/day.
For HP-β-cyclodextrin, the “Total daily oral dose may reach” value [9] is given as 8000 mg/day.
In the case of RM-β-cyclodextrin, the “Renal toxicity after parenteral administration (in words)” value (renal tubular epithelium; parenteral administration) is given as “renal toxicity at relatively low doses”.
